Patent US20220242870A1, “HETEROCYCLE-FUSED PYRIMIDINE DERIVATIVE AND USE THEREOF” (VORONOI Inc., priority 2019, published 2022)
pIC50: −log10 of the molar value.

Assays:
human GST-HPK1 (1-346) = target: T1, human GST-HPK1 (1-346) (Homo sapiens, UniProt Q92918); assay: HPK1 enzyme inhibitory ability (ADP-Glo kinase assay); type: biochemical; conditions: human GST-HPK1 3 ng, ATP 3 uM, 25° C. 2 hours
T1 construct: purified human GST-HPK1 (1-346, Signalchem) enzyme; purchased Signalchem
T1 sequence (Q92918 1-346): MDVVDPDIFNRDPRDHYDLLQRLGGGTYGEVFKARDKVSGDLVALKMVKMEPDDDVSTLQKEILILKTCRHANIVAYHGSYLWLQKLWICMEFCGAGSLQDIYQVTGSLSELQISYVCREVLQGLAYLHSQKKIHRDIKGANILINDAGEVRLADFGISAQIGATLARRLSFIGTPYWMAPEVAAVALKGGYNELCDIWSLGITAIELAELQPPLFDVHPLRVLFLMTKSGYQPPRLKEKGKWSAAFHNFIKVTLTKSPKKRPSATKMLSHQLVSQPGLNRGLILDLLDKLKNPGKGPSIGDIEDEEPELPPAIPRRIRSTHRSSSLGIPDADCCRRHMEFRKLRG
Protocol: In order to evaluate the inhibitory activities of the example compounds according to the present invention on the HPK1 (hematopoietic progenitor kinase 1) enzyme, the following experiment was performed. The example compounds were reacted with the purified human GST-HPK1 (1-346, Signalchem) enzyme to evaluate the enzyme inhibitory ability by the following method. As the reaction buffer, a composition of 40 mM Tris-HCl pH 7.4, 20 mM MgCl2, 0.5 mg/mL BSA and 50 uM DTT was used, and reactions of all test matters were performed on the reaction buffer. Upon the test, the human GST-HPK1 (3 ng) enzyme, the purified ATP (3 uM) and a specific substrate solution were reacted at 25° C. for 2 hours, and then the enzyme activity was identified using an in vitro ADP-Glo™ kinase assay (promega). The enzyme activity reaction solution, the ADP-Glo reaction solution and the enzyme ability detection solution were reacted in a ratio of 2:2:1 to measure luminescence. The enzyme activity inhibition degree according to the treatment concentrations of the respective compounds was calculated based on the fluorescence of the enzyme activity of the solvent control group that was not treated with the compound, where the concentration of each compound that inhibited enzyme activity inhibition by 50% was determined as an IC50 (nM) value.

human FLT3-ITD enzyme = target: T2, human FLT3-ITD enzyme (Homo sapiens, UniProt P36888); assay: FLT3 enzyme inhibitory ability (ADP-Glo kinase assay); type: biochemical; conditions: human FLT3-ITD enzyme 10 ng, ATP 10 μM, 25° C. 1 hour
T2 sequence (P36888 1-993): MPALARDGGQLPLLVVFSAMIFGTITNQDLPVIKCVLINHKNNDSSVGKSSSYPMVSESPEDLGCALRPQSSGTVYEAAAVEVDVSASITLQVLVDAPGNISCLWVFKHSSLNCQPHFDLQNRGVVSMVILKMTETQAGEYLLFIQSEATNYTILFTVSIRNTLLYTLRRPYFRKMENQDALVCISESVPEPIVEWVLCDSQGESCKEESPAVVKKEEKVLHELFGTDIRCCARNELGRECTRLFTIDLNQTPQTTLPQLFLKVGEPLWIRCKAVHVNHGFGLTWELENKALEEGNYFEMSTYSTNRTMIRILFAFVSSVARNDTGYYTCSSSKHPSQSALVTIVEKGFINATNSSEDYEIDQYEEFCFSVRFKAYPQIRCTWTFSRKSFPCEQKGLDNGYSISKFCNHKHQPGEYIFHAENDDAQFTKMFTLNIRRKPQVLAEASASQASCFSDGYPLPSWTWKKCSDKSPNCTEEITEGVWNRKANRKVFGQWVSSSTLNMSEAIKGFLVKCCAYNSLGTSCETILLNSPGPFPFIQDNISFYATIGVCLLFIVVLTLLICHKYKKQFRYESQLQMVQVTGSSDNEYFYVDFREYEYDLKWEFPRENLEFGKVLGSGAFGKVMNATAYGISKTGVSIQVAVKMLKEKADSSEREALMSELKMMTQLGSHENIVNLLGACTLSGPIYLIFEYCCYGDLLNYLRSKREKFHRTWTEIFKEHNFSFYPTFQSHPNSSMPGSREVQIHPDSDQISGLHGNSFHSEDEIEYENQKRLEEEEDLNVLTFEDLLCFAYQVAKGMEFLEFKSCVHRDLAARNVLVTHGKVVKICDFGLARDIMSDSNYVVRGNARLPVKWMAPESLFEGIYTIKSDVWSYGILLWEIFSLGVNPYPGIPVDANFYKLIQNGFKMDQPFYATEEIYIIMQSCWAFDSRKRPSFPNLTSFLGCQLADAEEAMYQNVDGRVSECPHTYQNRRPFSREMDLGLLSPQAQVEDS
Protocol: The inhibitory activities of the example compounds according to the present invention to the FLT3-ITD enzyme were evaluated. Specifically, the compound of the present invention was reacted with a purified human FLT3-ITD enzyme (Signalchem). A composition of 40 mM Tris-HCl pH 7.4, 20 mM MgCl2, 0.5 mg/mL BSA and 50 μM DTT was used as a reaction buffer, and reactions of all test matters were performed on the reaction buffer. Upon the test, human FLT3-ITD enzyme (10 ng), purified ATP (10 μM) and a specific substrate solution were reacted at 25° C. for 1 hour, and then the enzyme activity was identified using an in vitro ADP-Glo™ kinase assay (Promega). The enzyme activity reaction solution, the ADP-Glo reaction solution and the enzyme ability detection solution were reacted in a ratio of 2:2:1, and the activity inhibition degree of the enzyme was measured as luminescence. Using the solvent-treated group that was not treated with the compound as a control group, the enzyme activity inhibition degree according to the treatment concentration of each compound was calculated based on the enzyme activity fluorescence degree, and the concentration of each compound that inhibited 50%, IC50 (nM), was determined using Prism Software (version 5.01, GraphPad).

Structure (SMILES) | pIC50 (human GST-HPK1 (1-346)) | pIC50 (human FLT3-ITD enzyme)
FC(F)(F)c1c[nH]c2nc(Nc3ccc4c(c3)CCNC4)nc(N3OCC[C@H]3c3ccccc3)c12 [Example 124, (S)-N-(4-(3-phenylisoxazolidin-2-yl)-5-(trifluoromethyl)-7H-pyrrolo[2,3-d]pyrimidin-2-yl)-1,2,3,4-tetrahydroisoquinolin-6-amine] | < 6.30 | 
COc1cc2c(cc1Nc1nc(N3OCC[C@H]3c3ccccc3)c3c(C#N)c[nH]c3n1)CN(C1CC1)CC2 [Example 122, (S)-2-((2-cyclopropyl-6-methoxy-1,2,3,4-tetrahydroisoquinolin-7-yl)amino)-4-(3-phenylisoxazolidin-2-yl)-7H-pyrrolo[2,3-d]pyrimidine-5-carbonitrile] | < 6.30 | 
COc1cc(C(=O)N2CCC(N3CCN(C)CC3)CC2)ccc1Nc1nc(N2OCC[C@H]2c2ccccc2)c2cc[nH]c2n1 [Example 98, (S)-(3-methoxy-4-((4-(3-phenylisoxazolidin-2-yl)-7H-pyrrolo[2,3-d]pyrimidin-2-yl)amino)phenyl)(4-(4-methylpiperazin-1-yl)piperidin-1-yl)methanone] | < 6.30 | 
c1ccc([C@@H]2CCON2c2nc(Nc3ccc(N4CCC(N5CCN(C6CC6)CC5)CC4)cc3)nc3[nH]ccc23)cc1 [Example 86, (S)-N-(4-(4-(4-cyclopropylpiperazin-1-yl)piperidin-1-yl)phenyl)-4-(3-phenylisoxazolidin-2-yl)-7H-pyrrolo[2,3-d]pyrimidin-2-amine] | < 6.30 | 
COc1cc2c(cc1Nc1nc(N3OCC[C@H]3c3ccccc3)c3cc[nH]c3n1)C(=O)NCC2 [Example 108, (S)-6-methoxy-7-((4-(3-phenylisoxazolidin-2-yl)-7H-pyrrolo[2,3-d]pyrimidin-2-yl)amino)-3,4-dihydroisoquinolin-1(2H)-one] | ≤ 6.60 | 
CN(C)C(=O)Cn1cc(Nc2nc(N3OCC[C@H]3c3ccccc3)c3cc[nH]c3n2)cn1 [Example 103, S-N,N-dimethyl-2-(4-((4-(3-phenylisoxazolidin-2-yl)-7H-pyrrolo[2,3-d]pyrimidin-2-yl)amino)-1H-pyrazol-1-yl)acetamide] | < 6.30 | 
COc1cc(N2CCC(N3CCN(C)CC3)CC2)ccc1Nc1nc(N2OCC[C@H]2c2ccccc2)c2cc[nH]c2n1 [Example 88, (S)-N-(2-methoxy-4-(4-(4-methylpiperazin-1-yl)piperidin-1-yl)phenyl)-4-(3-phenylisoxazolidin-2-yl)-7H-pyrrolo[2,3-d]pyrimidin-2-amine] | < 6.30 | 
COc1cc2c(cc1Nc1nc(N3OCC[C@H]3c3ccccc3)c3cc[nH]c3n1)CNCC2 [Example 107, (S)-6-methoxy-N-(4-(3-phenylisoxazolidin-2-yl)-7H-pyrrolo[2,3-d]pyrimidin-2-yl)-1,2,3,4-tetrahydroisoquinolin-7-amine] | < 6.30 | 

Second part, the compound after the results:

pIC50 (human GST-HPK1 (1-346)) | pIC50 (human FLT3-ITD enzyme) | Structure (SMILES)
 | < 6.30 | COc1cc(-c2cnn(C)c2)ccc1Nc1nc(N2N=CCC2c2ccccc2)c2sccc2n1 (stereo not shown) [Example 42, N-(2-methoxy-4-(1-methyl-1H-pyrazol-4-yl)phenyl)-4-(5-phenyl-4,5-dihydro-1H-pyrazol-1-yl)thieno[3,2-d]pyrimidin-2-amine]
< 6.30 |  | CC(=O)N1CCc2cc(Nc3nc(N4OCC[C@H]4c4ccccc4)c4cc[nH]c4n3)ccc2C1 [Example 112, (S)-1-(6-((4-(3-phenylisoxazolidin-2-yl)-7H-pyrrolo[2,3-d]pyrimidin-2-yl)amino)-3,4-dihydroisoquinolin-2(1H)-yl)ethan-1-one]
< 6.30 |  | COc1cc(N2CCN(C)CC2)ccc1Nc1nc(N2OCC[C@H]2c2ccccc2)c2cc[nH]c2n1 [Example 80, (S)-N-(2-methoxy-4-(4-methylpiperazin-1-yl)phenyl)-4-(3-phenylisoxazolidin-2-yl)-7H-pyrrolo[2,3-d]pyrimidin-2-amine]
< 6.30 |  | COc1cc2c(cc1Nc1nc(N3OCC[C@H]3c3ccccc3)c3cc[nH]c3n1)CN(C)CC2 [Example 106, (S)-6-methoxy-2-methyl-N-(4-(3-phenylisoxazolidin-2-yl)-7H-pyrrolo[2,3-d]pyrimidin-2-yl)-1,2,3,4-tetrahydroisoquinolin-7-amine]
 | < 6.30 | CCN1CCN(c2c(F)cc(Nc3nc(N4N=CCC4c4ccccc4)c4sccc4n3)cc2F)CC1 (stereo not shown) [Example 56, N-(4-(4-ethylpiperazin-1-yl)-3,5-difluorophenyl)-4-(5-phenyl-4,5-dihydro-1H-pyrazol-1-yl)thieno[3,2-d]pyrimidin-2-amine]
≤ 6.60 |  | Cc1cc(Nc2nc(N3OCC[C@H]3c3ccccc3)c3cc[nH]c3n2)cc(C)c1OCCCN1CCN(C)CC1 [Example 102, (S)-N-(3,5-dimethyl-4-(3-(4-methylpiperazin-1-yl)propoxy)phenyl)-4-(3-phenylisoxazolidin-2-yl)-7H-pyrrolo[2,3-d]pyrimidin-2-amine]
 | < 6.30 | Cc1cc(Nc2nc(N3N=CCC3c3ccccc3)c3sccc3n2)cc(C)c1OCCCN1CCN(C)CC1 (stereo not shown) [Example 50, N-(3,5-dimethyl-4-(3-(4-methylpiperazin-1-yl)propoxy)phenyl)-4-(5-phenyl-4,5-dihydro-1H-pyrazol-1-yl)thieno[3,2-d]pyrimidin-2-amine]
 | < 6.30 | CN1CCN(Cc2ccc(Nc3nc(N4N=CCC4c4ccccc4)c4sccc4n3)cc2C(F)(F)F)CC1 (stereo not shown) [Example 54, N-(4-((4-methylpiperazin-1-yl)methyl)-3-(trifluoromethyl)phenyl)-4-(5-phenyl-4,5-dihydro-1H-pyrazol-1-yl)thieno[3,2-d]pyrimidin-2-amine]
 | < 6.30 | CN1CCN(C2CCN(c3c(F)cc(Nc4nc(N5N=CCC5c5ccccc5)c5sccc5n4)cc3F)CC2)CC1 (stereo not shown) [Example 55, N-(3,5-difluoro-4-(4-(4-methylpiperazin-1-yl)piperidin-1-yl)phenyl)-4-(5-phenyl-4,5-dihydro-1H-pyrazol-1-yl)thieno[3,2-d]pyrimidin-2-amine]
 | < 6.30 | Cc1cc(Nc2nc(N3N=CCC3c3ccccc3)c3sccc3n2)cc(C)c1OCCCN1CCCC1 (stereo not shown) [Example 49, N-(3,5-dimethyl-4-(3-(pyrrolidin-1-yl)propoxy)phenyl)-4-(5-phenyl-4,5-dihydro-1H-pyrazol-1-yl)thieno[3,2-d]pyrimidin-2-amine]
 | < 6.30 | CN1CCN(c2ccc(Nc3nc(N4N=CCC4c4ccccc4)c4sccc4n3)cc2C(F)(F)F)CC1 (stereo not shown) [Example 53, N-(4-(4-methylpiperazin-1-yl)-3-(trifluoromethyl)phenyl)-4-(5-phenyl-4,5-dihydro-1H-pyrazol-1-yl)thieno[3,2-d]pyrimidin-2-amine]
